Assay results reported in US20080020973A1 (priority 2004, published 2008).
Read-outs that look alike come from different tables or passages of the source.

Assays:
[1] = biological target: T1, vaccinia DNA topoisomerase IB (vTopo) (Vaccinia virus, UniProt P68698); experiment: biochemical; details: for remaining activity at 100 µM: 0.5 h, read-out: % vTopo activity
[2] = biological target: T1, vaccinia DNA topoisomerase IB (vTopo); experiment: biochemical
[3] = biological target: human topoisomerase type IB (hTopo) (Homo sapiens, UniProt P11387); experiment: biochemical; type: biochemical
vTopo [4] = biological target: T2, vTopo (Vaccinia virus, UniProt P68698); type: biochemical
T2 construct: made in house

Y274F vTopo = biological target: T3, Y274F vTopo (Vaccinia virus, UniProt P68698, Y274F); type: binding
T3 construct: made in house

vTopo [5] = biological target: T2, vTopo; type: biochemical; remark: listed apart in the source
vTopo [6] = biological target: T2, vTopo; type: biochemical; details: equilibrium cleavage
human topo IB enzyme = biological target: T4, human topo IB enzyme (Homo sapiens, UniProt P11387); details: cited from earlier work
T4 sequence (P11387 1-765): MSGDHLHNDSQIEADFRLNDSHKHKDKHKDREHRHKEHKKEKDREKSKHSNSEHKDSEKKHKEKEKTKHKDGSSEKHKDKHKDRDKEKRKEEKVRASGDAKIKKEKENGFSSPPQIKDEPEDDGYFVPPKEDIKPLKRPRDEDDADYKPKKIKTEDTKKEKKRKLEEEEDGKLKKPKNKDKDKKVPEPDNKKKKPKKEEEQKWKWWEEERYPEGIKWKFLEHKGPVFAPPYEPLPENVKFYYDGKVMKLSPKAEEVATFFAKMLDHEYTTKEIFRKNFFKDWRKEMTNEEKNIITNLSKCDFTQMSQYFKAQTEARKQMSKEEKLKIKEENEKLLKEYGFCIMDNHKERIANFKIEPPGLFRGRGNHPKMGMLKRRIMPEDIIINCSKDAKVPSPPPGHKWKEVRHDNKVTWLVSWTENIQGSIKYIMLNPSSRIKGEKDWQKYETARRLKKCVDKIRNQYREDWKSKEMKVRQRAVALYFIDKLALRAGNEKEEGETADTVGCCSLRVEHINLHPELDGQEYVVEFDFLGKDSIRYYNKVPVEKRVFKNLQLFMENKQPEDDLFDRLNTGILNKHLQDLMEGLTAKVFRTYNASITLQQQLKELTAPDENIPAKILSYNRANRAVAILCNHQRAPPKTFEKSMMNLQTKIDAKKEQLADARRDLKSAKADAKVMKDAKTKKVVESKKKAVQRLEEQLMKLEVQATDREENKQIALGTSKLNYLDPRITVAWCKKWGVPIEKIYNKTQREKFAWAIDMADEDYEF

vTopo [7] = biological target: T2, vTopo; details: inhibition of vTopo; cited from earlier work
[8] = read-out: % Inhibition (RNAse HTS)
[9] = read-out: % Inhibition (plasmid SC release assay)

Cc1cc(O)c(-c2cc(O)c(C)cc2O)cc1O [NSC 2805]
remaining activity at 100 µM [1]: 30%

CCCCCC(O)C1C(=O)OC(C)O/C=C/C=C/C=CC=C/C=C(/C)C(O)CC(O)CC(O)CC(O)CC(O)CC(O)CC1O (stereo not shown) [NSC 3364]
inhibition at 100 µM [1, 8]: 100%

O=C(O)c1ccc2ccc(-c3cccc4cccc(C(=O)O)c34)cc2c1 [NSC 7810]
inhibition at 2.5 µM [1, 8]: 100% | inhibition at 10 µM [2, 9]: 100%

CCC(=C(C)C)c1ccc(Oc2cccc(C(=O)O)c2)cc1 [NSC 7962]
remaining activity at 100 µM [1]: 33%

Cc1cc(N)c2cc(NC(=O)Nc3ccc4nc(C)cc(N)c4c3)ccc2n1 [NSC 12155]
inhibition at 2.5 µM [1, 8]: 100% | inhibition at 0.5 µM [2, 9]: 40%

Cc1ccc(S(=O)(=O)C2C(C3COC(C)(C)O3)OC3OC(C)(C)OC32)cc1 (stereo not shown) [NSC 14163]
inhibition at 2.5 µM [1, 8]: 100% | inhibition at 5 µM [2, 9]: 50% | Selectivity [3]: >3333 | inhibition at 20 µM [3, 9]: 0%

CN(C)CS/C(N)=N/[C@H](O)C(Cl)(Cl)Cl [NSC 14555]
% vTopo activity [1]: 28% | inhibition of the relaxation reaction [2]: complete inhibition

Nc1c(OCC(=O)O)ccc2cc(S(=O)(=O)O)ccc12 [NSC 16163]
inhibition at 100 µM [1, 8]: 100%

COc1ccc(/C=N/c2c(O)ccc3ccccc23)cc1OC [NSC 17061]
% Inhibition (RNAse HTS) ([1]; 100 µM): Partial @100 μM

CC(CCC(=O)O)(c1cc(Br)c(O)c(Br)c1)c1cc(Br)c(O)c(Br)c1 [NSC 21588]
inhibition at 1.2 µM [1, 8]: 100% | inhibition at 5 µM [2, 9]: 100%

Cc1cc(N)c2cc(OCCOc3ccc4nc(C)cc(N)c4c3)ccc2n1 [NSC 22907]
inhibition at 100 µM [1, 8]: 100%

Nc1c(S(N)(=O)=O)cc(S(N)(=O)=O)cc1S(N)(=O)=O [NSC 25857]
inhibition at 100 µM [1, 8]: 100%

Cc1ccc2nc(-c3ccc(NC(=O)c4ccc(N)cc4)c(S(=O)(=O)O)c3)sc2c1 [NSC 26699]
inhibition at 100 µM [1, 8]: 100%

O=C(O)C(O)(c1ccc(-c2ccccc2)cc1)c1ccc(-c2ccccc2)cc1 [NSC 28086]
inhibition at 1 µM [1, 8]: 100% | inhibition at 5 µM [2, 9]: 100%

CC(=O)c1ccccc1C(=O)c1ccc(C(=O)O)c(C(=O)O)c1 [NSC 28620]
inhibition at 1 µM [1, 8]: 100% | inhibition at 5 µM [2, 9]: 100%

CC(C)(C)C(=O)C(C(c1ccccc1)N1CCOCC1)N1CCOCC1 (stereo not shown) [NSC 33571]
inhibition at 100 µM [1, 8]: 100%

Nc1ccc(S(=O)(=O)c2ccc(NCN3C(=O)NC(=O)C(=O)C3=O)cc2)cc1 [NSC 34238]
inhibition at 100 µM [1, 8]: 100%

CNCSC(C)c1ccc(O)c(O)c1 (stereo not shown) [NSC 39215]
remaining activity at 100 µM [1]: 27%

CN(C)Cc1cc(O)c(O)c(CN(C)C)c1 [NSC 39225]
remaining activity at 100 µM [1]: 52%

Cc1c/c(=N\c2ccc3c(c2)c(N)cc(C)[n+]3C)nc(N)n1C [NSC 48223]
inhibition at 100 µM [1, 8]: 100%

COc1ccc2c(=O)cc(-c3ccncc3)oc2c1OC [NSC 54646]
inhibition at 10 µM [1, 8]: 100%

O=C1C=C/C(=N/c2cccc3c(/N=C4/C=CC(=O)O4)cccc23)O1 [NSC 69575]
inhibition at 100 µM [1, 8]: 100%

O=C(O)C1C(C(=O)Nc2ccc3c(c2)Cc2ccccc2-3)C2(Cl)C(Cl)=C(Cl)C1(Cl)C2(Cl)Cl (stereo not shown) [NSC 73101]
inhibition at 100 µM [1, 8]: 100%

O=C(O)CCc1ccc(-c2ccccc2)[nH]1 [NSC 75600]
remaining activity at 100 µM [1]: 35%

COc1ccc2c3c([nH]c2c1)C1CC2C(CC(O)C(OC)C2C(=O)O)CN1CC3 (stereo not shown) [NSC 81463]
% Inhibition (RNAse HTS) ([1]; 100 µM): Partial @100 μM

CC1CCC2(C(=O)O)CCC3(C)C(=CCC4C5(C)CC(O)C(O)C(C)(CO)C5C(O)CC43C)C2C1C (stereo not shown) [NSC 88135]
inhibition at 100 µM [1, 8]: 100%

C[C@]12CCC(=O)C=C1CCC1[C@@H]3CC[C@H](C(=O)OS(=O)(=O)c4ccc(Br)cc4)C3CC[C@@H]12 (stereo partly shown) [NSC 88915]
inhibition at 0.5 µM [1, 8]: 100% | inhibition at 0.006 µM [2, 9]: 50% | Selectivity [3]: 833 | inhibition at 5 µM [3, 9]: 50%

O=C1CNCCCN2CCN(CCCNCC(=O)Nc3ccc(cc3)S(=O)(=O)c3ccc(cc3)NC(=O)CNCCCN3CCN(CCCNCC(=O)Nc4ccc(cc4)S(=O)(=O)c4ccc(cc4)N1)CC3)CC2 [NSC 95609]
inhibition at 100 µM [1, 8]: 100%

CC[C@@]1(O)C(=O)OCc2c1cc1n(c2=O)Cc2cc3ccccc3nc2-1 [NSC 100880]
% Inhibition (RNAse HTS) ([1]; 100 µM): Partial @100 μM

Cc1cc(Cl)nc2ccc(Cc3ccc4nc(Cl)cc(C)c4c3)cc12 [NSC 109451]
% Inhibition (RNAse HTS) ([1]; 100 µM): Partial @100 μM

O=C(O)C(=O)Cc1ccc2c(c1)OCO2 [NSC 112983]
% covalent complex remaining (vTopo [4]): 7% | decrease of fraction covalent complex remaining (vTopo [4]): 50% | anisotropy of Y274F-DNA complex in presence of compound (Y274F vTopo): unchanged | IC50 [1]: ~2 µM | Ki [1]: 1.6 ± 0.6 µM | remaining activity at 100 µM [1]: 9% | inhibition at 8 µM ([1]; read-out: inhibition of the ribonuclease reaction rate): ~75% | IC50 [2]: ~7 µM | inhibition of the supercoil relaxation activity of vTopo [2]: complete inhibition | effect on the single-turnover cleavage rate (vTopo [5]; 8 μM): no effect | cleavage rate kcl (vTopo [5]; in the presence of 8 μM 112983 (2.3±0.06 in its absence)): 1.8 ± 0.05 s⁻¹ | decrease of percent covalently bound DNA (vTopo [6]; 100 μM compound): 50% | decrease in the amount of covalent complex (vTopo [6]; 100 μM, vs control without compound): 2 fold | inhibition of the hTopo supercoil relaxation reaction [3]: no detectable inhibition

C/C(=N\C1CCCCC1)c1ccccc1O [NSC 120917]
remaining activity at 100 µM [1]: 28% | inhibition of the relaxation reaction [2]: complete inhibition

C/C(=N\CC(=O)O)c1ccccc1 [NSC 125214]
remaining activity at 100 µM [1]: 53%

COc1ccc2nc3cc(Cl)ccc3c(Nc3ccc(O)c(CN4CCN(C)CC4)c3)c2c1 [NSC 130813]
inhibition at 100 µM [1, 8]: 100%

Oc1cc(O)c2c(c1)OC(c1ccc(O)c(O)c1)C(O)C2c1c(O)cc(O)c2c1OC(c1ccc(O)c(O)c1)C(O)C2 (stereo not shown) [NSC 143099]
inhibition at 1 µM [1, 8]: 100% | inhibition at 5 µM [2, 9]: 100%

Oc1cc(O)c2c(c1)OC(c1ccc(O)c(O)c1)C(OC1(c3cc(O)c(O)c(O)c3)Oc3cc(O)cc(O)c3C(O)C1O)C2 (stereo not shown) [NSC 143101]
inhibition at 0.5 µM [1, 8]: 100% | inhibition at 0.5 µM [2, 9]: 70%

O=[N+]([O-])/C=C/c1cc2ccccc2[nH]1 [NSC 150982]
remaining activity at 100 µM [1]: 54%

O=C(O)Cc1c(O)ccc2ccccc12 [NSC 163339]
remaining activity at 100 µM [1]: 48%

Oc1c(Cl)cc(C(c2cc(Cl)c(O)c(Cl)c2)C(c2cc(Cl)c(O)c(Cl)c2)c2cc(Cl)c(O)c(Cl)c2)cc1Cl [NSC 172033]
inhibition at 10 µM [1, 8]: 100%

Nc1ncnc2nc[nH]c12.Nc1ncnc2nc[nH]c12.[Cl][Pt]([Cl])([Cl])[Cl] [NSC 177395]
% Inhibition (RNAse HTS) ([1]; 100 µM): 100% @

O=C(O)c1cc(-c2ccc(-c3ccc(-c4cc(C(=O)O)c5cc(Cl)ccc5n4)cc3)cc2)nc2ccc(Cl)cc12 [NSC 210627]
inhibition at 100 µM [1, 8]: 100%

O=C(O)c1cc2c(cc1S(=O)(=O)O)C1C(C3C2C2(Cl)C(Cl)=C(Cl)C3(Cl)C2(Cl)Cl)C2(Cl)C(Cl)=C(Cl)C1(Cl)C2(Cl)Cl (stereo not shown) [NSC 270718]
% Inhibition (RNAse HTS) ([1]; 10 µM): 100% @

CCC(O)[NH+]1CC[NH+](C(O)CC)CC1.[Cl][Pt-2]([Cl])([Cl])([Cl])([Cl])[Cl] (stereo not shown) [NSC 295558]
% Inhibition (RNAse HTS) ([1]; 100 µM): 100% @

Cc1ccc(NC(=[OH+])c2cc3ccccc3cc2O)c(C)c1.Cc1ccc(NC(=[OH+])c2cc3ccccc3cc2O)c(C)c1.[Ni] [NSC 306698]
% Inhibition (RNAse HTS) ([1]; 100 µM): 100% @100 μM

CN1CCN(c2ccc3[nH]c(-c4ccc5[nH]c(-c6ccc(O)cc6)nc5c4)nc3c2)CC1 [NSC 322921]
inhibition at 100 µM [1, 8]: 100%

N#C/C(=C\Nc1ccccn1)C(=O)c1ccco1 [NSC 379552]
remaining activity at 100 µM [1]: 7%

O=C(O)CSCc1ccc(N=C=S)c(O)c1 [NSC 403376]
remaining activity at 100 µM [1]: 45%

COP(OCc1ccccc1)Oc1cccc2c1C(=O)c1cn3c(c1C2=O)C(C)c1ccccc1C3 (stereo not shown) [NSC 611615]
inhibition at 100 µM [1, 8]: 100%

COc1cc(C)cc2c(-c3c(O)cc(O)c4c3CC(C)NC4C)cc(-c3cc(-c4c(O)cc(O)c5c4CC(C)NC5C)c4cc(C)cc(OC)c4c3O)c(O)c12 (stereo not shown) [NSC 661755]
inhibition at 10 µM [1, 8]: 100%

CC(CCC(=O)O)C1CCC2C3CCC4CC(O)CCC4(C)C3CCC12C (stereo not shown) [NSC 683770]
inhibition at 100 µM [1, 8]: 100%

O=C(O)c1cnc2c(ccc3ncc(C(=O)O)c(O)c32)c1O [NSC 1288884]
% Inhibition (RNAse HTS) ([1]; 100 µM): Partial @100 μM

CO[C@@H]1[C@@H](OC(N)=O)[C@@H](O)[C@H](Oc2ccc3c(O)c(NC(=O)c4ccc(O)c(CC=C(C)C)c4)c(=O)oc3c2C)OC1(C)C [novobiocin]
inhibition of human topo IB enzyme (human topo IB enzyme): no inhibition | Ki (vTopo [7]): 325 µM | inhibition of the relaxation reaction [2]: complete inhibition
